A value given as a limit tells only on which side of the number the result lay.

The target in test [1] is T1, p300 (Homo sapiens, UniProt Q09472).
T1 construct: host or cells: A549 P300 HiBit cells
The test can be described thus: P300 degradation, HiBit technology in A549 P300 HiBit cells (2 h). The class given is cell-based. The following applies: 2 hrs post treatment; for Dmax: A549, A549 P300 HiBit cells; for DC50: A549 P300 HiBit cells. An outline of the steps: (§1)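 Degradation potency and Dmax came from HiBiT luminescence in tagged A549 cells treated with serially diluted compound (DMSO stocks at 10 mM) after overnight equilibration in F-12K with 10% heat-inactivated FBS.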

The target of test [2] is T2, CBP (Homo sapiens, UniProt Q92793).
T2 construct: host or cells: A549 CBP HiBit cells
In words: CBP degradation, HiBit technology in A549 CBP HiBit cells (24 h). The class given is cell-based. The following applies: 24 hrs post treatment. A digest of the protocol:
as §1

T1 sequence (Q09472 whole entry): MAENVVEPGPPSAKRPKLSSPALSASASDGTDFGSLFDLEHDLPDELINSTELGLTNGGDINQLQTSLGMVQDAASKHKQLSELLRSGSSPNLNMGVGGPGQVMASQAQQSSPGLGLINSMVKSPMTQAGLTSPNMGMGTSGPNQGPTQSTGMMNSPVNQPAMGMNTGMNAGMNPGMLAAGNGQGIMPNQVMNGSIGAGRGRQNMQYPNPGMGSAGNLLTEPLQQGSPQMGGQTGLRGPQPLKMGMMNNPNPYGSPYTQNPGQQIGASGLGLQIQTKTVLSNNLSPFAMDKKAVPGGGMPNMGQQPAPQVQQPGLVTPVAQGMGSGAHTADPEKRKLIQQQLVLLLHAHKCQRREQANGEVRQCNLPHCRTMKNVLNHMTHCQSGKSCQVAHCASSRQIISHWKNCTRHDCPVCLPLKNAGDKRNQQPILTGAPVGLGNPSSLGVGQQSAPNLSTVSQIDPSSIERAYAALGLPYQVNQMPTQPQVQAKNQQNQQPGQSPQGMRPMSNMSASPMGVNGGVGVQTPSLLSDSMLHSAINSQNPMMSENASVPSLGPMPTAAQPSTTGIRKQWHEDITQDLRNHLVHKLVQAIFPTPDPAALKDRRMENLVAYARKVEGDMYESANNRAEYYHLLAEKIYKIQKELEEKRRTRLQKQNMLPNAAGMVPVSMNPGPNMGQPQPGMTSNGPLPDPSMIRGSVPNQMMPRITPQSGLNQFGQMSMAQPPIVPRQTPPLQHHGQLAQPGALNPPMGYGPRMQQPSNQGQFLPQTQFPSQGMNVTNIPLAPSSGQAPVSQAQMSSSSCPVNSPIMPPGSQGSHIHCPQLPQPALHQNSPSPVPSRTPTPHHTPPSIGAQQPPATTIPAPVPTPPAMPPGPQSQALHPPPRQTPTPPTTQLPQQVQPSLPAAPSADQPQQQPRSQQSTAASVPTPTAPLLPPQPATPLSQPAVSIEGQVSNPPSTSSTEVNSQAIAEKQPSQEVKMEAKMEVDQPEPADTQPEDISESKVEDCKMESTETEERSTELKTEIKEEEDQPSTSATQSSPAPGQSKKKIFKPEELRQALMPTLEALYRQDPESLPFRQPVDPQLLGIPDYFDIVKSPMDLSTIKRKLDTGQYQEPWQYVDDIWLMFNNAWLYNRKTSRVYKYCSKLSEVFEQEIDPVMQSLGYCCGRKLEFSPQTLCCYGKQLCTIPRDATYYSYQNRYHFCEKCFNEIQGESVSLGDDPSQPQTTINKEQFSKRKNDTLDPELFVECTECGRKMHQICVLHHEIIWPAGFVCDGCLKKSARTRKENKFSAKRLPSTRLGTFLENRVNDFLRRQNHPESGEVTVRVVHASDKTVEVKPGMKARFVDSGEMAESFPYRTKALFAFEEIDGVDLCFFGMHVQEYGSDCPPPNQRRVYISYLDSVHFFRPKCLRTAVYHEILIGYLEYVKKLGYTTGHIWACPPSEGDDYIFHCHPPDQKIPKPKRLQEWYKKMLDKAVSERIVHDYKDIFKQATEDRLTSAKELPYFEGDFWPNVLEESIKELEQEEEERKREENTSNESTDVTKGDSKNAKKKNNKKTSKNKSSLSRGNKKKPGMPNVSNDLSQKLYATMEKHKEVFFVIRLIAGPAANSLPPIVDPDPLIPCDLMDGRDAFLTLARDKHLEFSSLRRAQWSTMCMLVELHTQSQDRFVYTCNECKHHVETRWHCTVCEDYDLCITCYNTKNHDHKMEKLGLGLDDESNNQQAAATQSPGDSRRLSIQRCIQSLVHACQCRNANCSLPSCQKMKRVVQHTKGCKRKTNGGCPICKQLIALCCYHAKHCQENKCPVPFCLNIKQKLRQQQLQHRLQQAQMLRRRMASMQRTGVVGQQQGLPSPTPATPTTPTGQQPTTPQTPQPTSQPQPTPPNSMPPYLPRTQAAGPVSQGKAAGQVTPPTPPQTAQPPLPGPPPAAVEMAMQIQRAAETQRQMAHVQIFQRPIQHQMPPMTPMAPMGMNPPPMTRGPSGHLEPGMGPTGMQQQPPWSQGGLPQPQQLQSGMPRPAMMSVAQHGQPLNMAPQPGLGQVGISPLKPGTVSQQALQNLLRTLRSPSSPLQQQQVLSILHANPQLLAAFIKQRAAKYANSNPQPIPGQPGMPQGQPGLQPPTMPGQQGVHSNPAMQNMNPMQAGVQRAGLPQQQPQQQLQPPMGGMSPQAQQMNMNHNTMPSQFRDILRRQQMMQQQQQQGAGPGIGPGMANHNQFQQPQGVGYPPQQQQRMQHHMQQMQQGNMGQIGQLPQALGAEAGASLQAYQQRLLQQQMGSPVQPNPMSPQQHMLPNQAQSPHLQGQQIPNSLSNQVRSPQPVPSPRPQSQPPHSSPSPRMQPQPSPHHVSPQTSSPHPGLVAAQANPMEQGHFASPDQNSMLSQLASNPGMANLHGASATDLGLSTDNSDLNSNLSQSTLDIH
T2 sequence (Q92793 whole entry): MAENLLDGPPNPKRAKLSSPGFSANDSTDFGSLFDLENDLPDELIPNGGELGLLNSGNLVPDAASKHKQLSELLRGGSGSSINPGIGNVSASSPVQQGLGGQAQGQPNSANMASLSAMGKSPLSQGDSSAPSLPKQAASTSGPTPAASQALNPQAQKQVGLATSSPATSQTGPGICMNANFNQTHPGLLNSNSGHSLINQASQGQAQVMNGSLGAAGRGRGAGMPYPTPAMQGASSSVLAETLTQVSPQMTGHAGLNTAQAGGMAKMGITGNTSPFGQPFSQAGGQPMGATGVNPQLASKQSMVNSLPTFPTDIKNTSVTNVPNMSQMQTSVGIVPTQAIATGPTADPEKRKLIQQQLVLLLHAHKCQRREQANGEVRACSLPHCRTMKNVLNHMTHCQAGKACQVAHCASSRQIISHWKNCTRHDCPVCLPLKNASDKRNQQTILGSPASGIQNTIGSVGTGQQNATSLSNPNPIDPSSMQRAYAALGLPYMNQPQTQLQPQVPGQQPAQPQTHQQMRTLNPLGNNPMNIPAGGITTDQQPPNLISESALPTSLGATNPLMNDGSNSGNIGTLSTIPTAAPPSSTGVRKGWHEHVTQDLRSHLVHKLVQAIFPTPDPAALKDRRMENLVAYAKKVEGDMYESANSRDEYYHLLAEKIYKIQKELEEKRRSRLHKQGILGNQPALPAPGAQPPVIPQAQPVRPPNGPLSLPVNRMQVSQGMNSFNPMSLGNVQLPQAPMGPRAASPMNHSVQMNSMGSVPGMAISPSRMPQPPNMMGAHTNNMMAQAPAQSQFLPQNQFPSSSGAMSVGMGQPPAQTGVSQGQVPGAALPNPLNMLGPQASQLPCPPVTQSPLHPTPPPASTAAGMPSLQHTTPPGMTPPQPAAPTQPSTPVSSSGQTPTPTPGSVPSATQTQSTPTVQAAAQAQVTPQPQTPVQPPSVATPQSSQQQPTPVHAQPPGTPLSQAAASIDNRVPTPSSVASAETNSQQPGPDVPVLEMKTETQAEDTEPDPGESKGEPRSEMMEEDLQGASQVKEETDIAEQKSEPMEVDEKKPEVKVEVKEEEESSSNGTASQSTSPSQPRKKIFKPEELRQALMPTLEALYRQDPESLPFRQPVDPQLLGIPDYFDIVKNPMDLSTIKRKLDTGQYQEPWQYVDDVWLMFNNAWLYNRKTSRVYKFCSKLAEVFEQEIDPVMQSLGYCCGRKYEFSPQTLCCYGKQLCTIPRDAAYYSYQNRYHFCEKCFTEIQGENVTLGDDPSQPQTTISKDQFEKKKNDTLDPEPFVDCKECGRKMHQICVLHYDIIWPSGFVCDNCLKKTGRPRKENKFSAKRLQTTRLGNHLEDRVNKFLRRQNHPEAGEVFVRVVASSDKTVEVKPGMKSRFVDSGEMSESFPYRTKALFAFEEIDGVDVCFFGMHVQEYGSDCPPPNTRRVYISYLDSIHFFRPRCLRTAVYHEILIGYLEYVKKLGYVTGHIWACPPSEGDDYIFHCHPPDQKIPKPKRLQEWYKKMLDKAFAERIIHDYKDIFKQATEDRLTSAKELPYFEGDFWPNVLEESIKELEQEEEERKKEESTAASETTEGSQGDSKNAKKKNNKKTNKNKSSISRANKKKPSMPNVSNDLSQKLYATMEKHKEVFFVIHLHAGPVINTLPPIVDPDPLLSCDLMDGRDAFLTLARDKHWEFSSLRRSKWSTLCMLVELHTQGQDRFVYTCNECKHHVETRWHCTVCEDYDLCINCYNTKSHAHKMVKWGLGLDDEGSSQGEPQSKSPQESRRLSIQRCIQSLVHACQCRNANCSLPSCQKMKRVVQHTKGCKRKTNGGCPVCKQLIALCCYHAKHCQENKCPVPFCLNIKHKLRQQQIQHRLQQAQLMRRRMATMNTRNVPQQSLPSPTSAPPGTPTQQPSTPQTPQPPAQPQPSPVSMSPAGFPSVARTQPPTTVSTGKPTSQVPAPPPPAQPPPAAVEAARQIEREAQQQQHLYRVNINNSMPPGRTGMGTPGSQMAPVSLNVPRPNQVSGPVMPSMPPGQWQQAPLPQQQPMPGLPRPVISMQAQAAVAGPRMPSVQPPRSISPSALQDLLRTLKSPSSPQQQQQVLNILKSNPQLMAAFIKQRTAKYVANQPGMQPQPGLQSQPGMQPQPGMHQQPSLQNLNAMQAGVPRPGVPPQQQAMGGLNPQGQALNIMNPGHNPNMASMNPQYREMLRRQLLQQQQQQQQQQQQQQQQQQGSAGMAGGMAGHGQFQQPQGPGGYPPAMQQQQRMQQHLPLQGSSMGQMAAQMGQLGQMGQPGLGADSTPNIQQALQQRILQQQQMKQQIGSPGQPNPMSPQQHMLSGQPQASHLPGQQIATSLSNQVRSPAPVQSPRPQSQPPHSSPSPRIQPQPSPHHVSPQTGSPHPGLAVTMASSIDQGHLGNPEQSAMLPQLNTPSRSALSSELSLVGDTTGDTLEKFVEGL

What is called Dmax is the largest share of the target that was removed. The DC50 is the midpoint of the concentration-degradation curve. In test [1], `Cc1cc(-c2ncc3c(n2)CCCN3c2cc(C3CCOCC3)cc3c2cc(C)c(=O)n3C)cnc1C(=O)NCC#Cc1ccc2occ(C3CCC(=O)NC3=O)c2c1` (stereo not shown) [Example B42, 5-(5-(1,3-dimethyl-2-oxo-7-(tetrahydro-2H-pyran-4-yl)-1,2-dihydroquinolin-5-yl)-5,6,7,8-tetrahydropyrido[3,2-d]pyrimidin-2-yl)-N-(3-(3-(2,6-dioxopiperidin-3-yl)benzofuran-5-yl)prop-2-yn-1-yl)-3-methylpicolinamide] displayed a maximal degradation (Dmax) of 60 to 79% and a DC50 of 1 to 9.9 nM. In test [2], this compound returned a DC50 of over 1000 nM and a maximal degradation (Dmax) of under 20%.

For the compound `CC(C)c1cc(-c2cccc3cc(-c4ccc(C(=O)NCC#Cc5ccc6cnn(C7CCC(=O)NC7=O)c6c5Cl)nc4)ncc23)cc2c1n(C)c(=O)n2C` (stereo not shown) [Example A39, N-(3-(7-Chloro-1-(2,6-dioxopiperidin-3-yl)-1H-indazol-6-yl)prop-2-yn-1-yl)-5-(8-(7-isopropyl-1,3-dimethyl-2-oxo-2,3-dihydro-1H-benzo[d]imidazol-5-yl)isoquinolin-3-yl)picolinamide], in test [1], the maximal degradation (Dmax) was over 80% and the DC50 fell in the range of 1 to 9.9 nM. Moreover, in test [2], the DC50 was in the range of 100 to 999 nM and the Dmax lay within 20 to 39%.

In test [1], `Cc1cc(N2CCN(C)c3nc(-c4ccc(C(=O)NCC#Cc5cc6c(C7CCC(=O)NC7=O)cccc6o5)nc4)ncc32)cc2c1n(C)c(=O)n2C` (stereo not shown) [Example A219, N-(3-(4-(2,6-dioxo-piperidin-3-yl)benzofuran-2-yl)prop-2-yn-1-yl)-5-(8-methyl-5-(1,3,7-trimethyl-2-oxo-2,3-dihydro-1H-benzo[d]imidazol-5-yl)-5,6,7,8-tetrahydro-pteridin-2-yl)picolinamide] gave a Dmax of over 80% and a DC50 of under 1 nM. For the same compound, in test [2], the 50% degradation concentration (DC50) is 100 to 999 nM and the maximal degradation (Dmax) is under 20%.

Take `Cc1cc2c(N3CCCc4nc(-c5ccc(C(=O)NCC#Cc6cc7c(C8CCC(=O)NC8=O)cccc7o6)nc5)ncc43)cc(C3CCC3)nc2n(C)c1=O` (stereo not shown) [Example B164, 5-(5-(2-cyclobutyl-6,8-dimethyl-7-oxo-7,8-dihydro-1,8-naphthyridin-4-yl)-5,6,7,8-tetra-hydropyrido[3,2-d]pyrimidin-2-yl)-N-(3-(4-(2,6-dioxopiperidin-3-yl)benzofuran-2-yl)prop-2-yn-1-yl)picolinamide]: in test [1], the maximal degradation (Dmax) is over 80% and the half-maximal degradation concentration (DC50) was 10 to 99 nM. Further, in test [2], the half-maximal degradation concentration (DC50) is over 1000 nM and the Dmax is under 20%.

On to `Cc1cc2c(N3CCCc4nc(-c5ccc(C(=O)NCC#Cc6ccc7onc(C8CCC(=O)NC8=O)c7c6)nc5)ncc43)cc(C3CCOCC3)cc2n(C)c1=O` (stereo not shown) [Example B108, 5-(5-(1,3-dimethyl-2-oxo-7-(tetrahydro-2H-pyran-4-yl)-1,2-dihydroquinolin-5-yl)-5,6,7,8-tetrahydropyrido[3,2-d]pyrimidin-2-yl)-N-(3-(3-(2,6-dioxopiperidin-3-yl)benzo[d]isoxazol-5-yl)prop-2-yn-1-yl)picolinamide], for which the Dmax in test [1] was over 80%; in test [2], under 20%. Besides, the 50% degradation concentration (DC50) in test [1] was under 1 nM; in test [2], 100 to 999 nM.

In test [1], `Cn1nc(C2CCC(=O)NC2=O)c2cc(C#CCNC(=O)c3ccc(-c4ncc5c(n4)OCCN5c4ccc5c(c4)n(C)c(=O)n5C)cn3)ccc21` (stereo not shown) [Example A243, 5-(5-(1,3-dimethyl-2-oxo-2,3-dihydro-1H-benzo[d]imidazol-5-yl)-6,7-dihydro-5H-pyrimido[4,5-b][1,4]oxazin-2-yl)-N-(3-(3-(2,6-dioxopiperidin-3-yl)-1-methyl-1H-indazol-5-yl)prop-2-yn-1-yl)picolinamide] registered a Dmax of over 80% and a DC50 of 1 to 9.9 nM. In test [2], this compound returned a DC50 of over 1000 nM and a Dmax of under 20%.

For `Cc1cc2c(N3CCCc4nc(-c5ccc(C(=O)NCC#Cc6ccc7occ(C8CCC(=O)NC8=O)c7c6)nc5)ncc43)cccc2n(C)c1=O` (stereo not shown) [Example B110, 5-(5-(1,3-dimethyl-2-oxo-1,2-dihydroquinolin-5-yl)-5,6,7,8-tetrahydropyrido[3,2-d]pyrimidin-2-yl)-N-(3-(3-(2,6-dioxopiperidin-3-yl)benzofuran-5-yl)prop-2-yn-1-yl)picolinamide], in test [1], the Dmax is over 80% and the DC50 was 1 to 9.9 nM. In test [2], this compound yielded a DC50 of over 1000 nM and a Dmax of under 20%.

In the case of `Cc1cc(-c2ccc(N(C)c3cc(C4CCOCC4)c4c(c3)n(C)c(=O)n4C)cn2)cnc1C(=O)NCC#Cc1cccc(NC2CCC(=O)NC2=O)c1` (stereo not shown) [Example A45, 5-((1,3-dimethyl-2-oxo-7-(tetrahydro-2H-pyran-4-yl)-2,3-dihydro-1H-benzo[d]imidazol-5-yl) (methyl)amino)-N-(3-(3-((2,6-dioxopiperidin-3-yl)amino)phenyl)prop-2-yn-1-yl)-5′-methyl-[2,3′-bipyridine]-6′-carboxamide], in test [1], the Dmax is over 80% and the 50% degradation concentration (DC50) was in the range of 1 to 9.9 nM. In test [2], this compound displayed a 50% degradation concentration (DC50) of over 1000 nM and a Dmax of under 20%.

For the compound `Cc1cc2c(N3CCCc4nc(-c5ccc(C(=O)NCC#Cc6cc7c(C8CCC(=O)NC8=O)cccc7o6)nc5)ncc43)cc(C3COC3)nc2n(C)c1=O` (stereo not shown) [Example B163, 5-(5-(6,8-dimethyl-2-(oxetan-3-yl)-7-oxo-7,8-dihydro-1,8-naphthyridin-4-yl)-5,6,7,8-tetrahydropyrido[3,2-d]pyrimidin-2-yl)-N-(3-(4-(2,6-dioxopiperidin-3-yl)benzofuran-2-yl)prop-2-yn-1-yl)picolinamide], in test [1], the Dmax was over 80% and the 50% degradation concentration (DC50) is under 1 nM. Also, in test [2], the DC50 was over 1000 nM and the Dmax is under 20%.

In test [1], `CCN(CC)c1cc2c(cc(C)c(=O)n2C)c(N2CCCc3nc(-c4ccc(C(=O)NCC#Cc5cc6c(C7CCC(=O)NC7=O)nccc6o5)nc4)ncc32)n1` (stereo not shown) [Example B25, 5-(5-(7-(diethylamino)-1,3-dimethyl-2-oxo-1,2-dihydro-1,6-naphthyridin-5-yl)-5,6,7,8-tetrahydropyrido[3,2-d]pyrimidin-2-yl)-N-(3-(4-(2,6-dioxopiperidin-3-yl)furo[3,2-c]pyridin-2-yl)prop-2-yn-1-yl)picolinamide] yielded a maximal degradation (Dmax) of over 80% and a DC50 of 1 to 9.9 nM. Besides, in test [2], the DC50 is 10 to 99 nM and the Dmax was 20 to 39%.

On to `Cc1cc(-c2ncc3c(n2)OCCN3c2ccc3c(c2)n(C)c(=O)n3C)cnc1C(=O)NCC#Cc1cc2c(C3CCC(=O)NC3=O)cccc2o1` (stereo not shown) [Example A173, 5-(5-(1,3-dimethyl-2-oxo-2,3-dihydro-1H-benzo[d]imidazol-5-yl)-6,7-dihydro-5H-pyrimido[4,5-b][1,4]oxazin-2-yl)-N-(3-(4-(2,6-dioxopiperidin-3-yl)benzofuran-2-yl)prop-2-yn-1-yl)-3-methylpicolinamide], for which, in test [1], the Dmax is over 80% and the 50% degradation concentration (DC50) lay in the range of 1 to 9.9 nM. In test [2], this compound returned a DC50 of over 1000 nM and a maximal degradation (Dmax) of under 20%.

In test [1], `CC(C)c1cc(-c2cn(C)c(=O)c3cc(-c4ccc(C(=O)NCC#Cc5ccc6occ(C7CCC(=O)NC7=O)c6c5)nc4)ncc23)cc2c1n(C)c(=O)n2C` (stereo not shown) [Example A97, N-(3-(3-(2,6-dioxo-piperidin-3-yl)benzofuran-5-yl)prop-2-yn-1-yl)-5-(8-(7-isopropyl-1,3-dimethyl-2-oxo-2,3-dihydro-1H-benzo [d]imidazol-5-yl)-6-methyl-5-oxo-5,6-dihydro-2,6-naphthyridin-3-yl) picolinamide] had a Dmax of over 80% and a half-maximal degradation concentration (DC50) of 1 to 9.9 nM. In test [2], the 50% degradation concentration (DC50) was 10 to 99 nM and the Dmax was 40 to 59%.

On to `CC(C)c1cc(N(C)c2cnc(-c3ccc(C(=O)NCC#Cc4ccc5cnn(C6CCC(=O)NC6=O)c5c4)nc3)nc2)cc2c1n(C)c(=O)n2C` (stereo not shown) [Example A211, N-(3-(1-(2,6-dioxo-piperidin-3-yl)-1H-indazol-6-yl)prop-2-yn-1-yl)-5-(5-((7-isopropyl-1,3-dimethyl-2-oxo-2,3-dihydro-1H-benzo [d]imidazol-5-yl)(methyl)amino)pyrimidin-2-yl)picolinamide], for which, in test [1], the Dmax is over 80% and the DC50 is 1 to 9.9 nM. In test [2], this compound gave a 50% degradation concentration (DC50) of over 1000 nM and a Dmax of under 20%.

Turning to `Cc1cc2c(-c3cccc4cc(-c5ccc(C(=O)NCC#Cc6ccc7occ(C8CCC(=O)NC8=O)c7c6)nc5)ncc34)nc(C(C)C)cc2n(C)c1=O` (stereo not shown) [Example B102, N-(3-(3-(2,6-dioxopiperidin-3-yl)benzofuran-5-yl)prop-2-yn-1-yl)-5-(8-(7-isopropyl-1,3-dimethyl-2-oxo-1,2-dihydro-1,6-naphthyridin-5-yl)isoquinolin-3-yl)picolinamide], in test [1], the Dmax is over 80% and the DC50 was in the range of 1 to 9.9 nM. In test [2], this compound came in with a DC50 of over 1000 nM and a Dmax of under 20%.

As for `CN1CCN(c2ccc3c(c2)n(C)c(=O)n3C)c2cnc(-c3ccc(C(=O)NCC#Cc4ccc5occ(C6CCC(=O)NC6=O)c5c4)nc3)nc21` (stereo not shown) [Example A122, 5-(5-(1,3-dimethyl-2-oxo-2,3-dihydro-1H-benzo[d]imidazol-5-yl)-8-methyl-5,6,7,8-tetrahydropteridin-2-yl)-N-(3-(3-(2,6-dioxopiperidin-3-yl)benzofuran-5-yl)prop-2-yn-1-yl)picolinamide], in test [1], the Dmax is over 80% and the DC50 was under 1 nM. In test [2], this compound had a half-maximal degradation concentration (DC50) of over 1000 nM and a Dmax of under 20%.

On to `CCN(c1cnc(-c2cnc(C(=O)NCC#Cc3ccc4occ(C5CCC(=O)NC5=O)c4c3)c(C)c2)nc1)c1cc(C(C)C)c2c(c1)n(C)c(=O)n2C` (stereo not shown) [Example A70, N-(3-(3-(2,6-dioxopiperidin-3-yl)benzofuran-5-yl)prop-2-yn-1-yl)-5-(5-(ethyl(7-isopropyl-1,3-dimethyl-2-oxo-2,3-dihydro-1H-benzo[d]imidazol-5-yl)amino)pyrimidin-2-yl)-3-methylpicolinamide], for which, in test [1], the greatest degradation seen (Dmax) is over 80% and the DC50 fell in the range of 1 to 9.9 nM. For the same compound, in test [2], the half-maximal degradation concentration (DC50) was over 1000 nM and the Dmax was under 20%.

(Values after patent US20250114345A1, “COMPOUNDS AND COMPOSITIONS AS CBP/P300 DEGRADERS AND USES THEREOF” (Oncopia Therapeutics, Inc. d/b/a/ SK Life Science Labs, priority 2023, published 2025).)
